# Results: ChEMBL document CHEMBL5143615, “Novel 2-aryl-4-aryloxyquinoline-based fungistatics for Mucor circinelloides. Biological evaluation of activity, QSAR and docking study” (Bioorg Med Chem Lett, 2022)
# How the values were obtained:
# Type in all cases: functional
# Parameters in all cases: scale not given: the % may be the effect or the level left
# Mucor circinelloides [1] = assay: Antifungal activity against Mucor circinelloides R7B wild type strain assessed as reduction in spore germination at 150 ug/ml relative to control; conditions: dose 150 µg/ml
# Mucor circinelloides [2] = assay: Antifungal activity against Mucor circinelloides M5 strain assessed as reduction in spore germination at 25 ug/ml relative to control; conditions: dose 25 µg/ml
# Mucor circinelloides [3] = assay: Antifungal activity against Mucor circinelloides M5 strain assessed as reduction in spore germination at 100 ug/ml relative to control; conditions: dose 100 µg/ml
# Mucor circinelloides [4] = assay: Antifungal activity against Mucor circinelloides M5 strain assessed as reduction in spore germination at 150 ug/ml relative to control; conditions: dose 150 µg/ml
# Mucor circinelloides [5] = assay: Antifungal activity against Mucor circinelloides R7B wild type strain assessed as reduction in spore germination at 100 ug/ml relative to control; conditions: dose 100 µg/ml
# Mucor circinelloides [6] = assay: Antifungal activity against Mucor circinelloides R7B wild type strain assessed as reduction in spore germination at 50 ug/ml relative to control; conditions: dose 50 µg/ml
# Mucor circinelloides [7] = assay: Antifungal activity against Mucor circinelloides R7B wild type strain assessed as reduction in spore germination at 25 ug/ml relative to control; conditions: dose 25 µg/ml
# Mucor circinelloides [8] = assay: Antifungal activity against Mucor circinelloides M5 strain assessed as reduction in spore germination at 50 ug/ml relative to control; conditions: dose 50 µg/ml
Structure (SMILES),Activity (Mucor circinelloides [1]) [%],Activity (Mucor circinelloides [2]) [%],Activity (Mucor circinelloides [3]) [%],Activity (Mucor circinelloides [4]) [%],Activity (Mucor circinelloides [5]) [%],Activity (Mucor circinelloides [6]) [%],Activity (Mucor circinelloides [7]) [%],Activity (Mucor circinelloides [8]) [%]
COc1cc(-c2ccc(F)cc2)nc2ccccc12,12.6,78.4,20.6,14.9,17.1,60.3,73.1,47.9
Cc1cc(C)cc(-c2ccc3ccccc3n2)c1,–,–,87.6,–,84.9,–,–,–
Clc1ccc(-c2cc(Oc3ccccc3)c3ccccc3n2)cc1,–,–,32.3,–,36.1,–,–,–
O=[N+]([O-])c1ccc(Oc2cc(-c3ccc(Cl)cc3)nc3ccccc23)cc1,–,–,82.9,–,81.7,–,–,–
O=[N+]([O-])c1ccc(Oc2cc(-c3cccc(C(F)(F)F)c3)nc3ccccc23)cc1,–,–,29.7,–,32.8,–,–,–
COc1cc(-c2ccc(Cl)c(Cl)c2)nc2ccccc12,–,–,93.7,–,96.1,–,–,–
COc1cc(-c2ccc(C)cc2)nc2ccccc12,–,–,84.9,–,81.9,–,–,–
